Source: ChEMBL document CHEMBL5465560, “Selectivity Literature for EUbOPEN Chemogenomic Library” (2024)

Legend:
[1] = biological target: T1, Mitogen-activated protein kinase 13 (Homo sapiens) (UniProt O15264); assay: Selectivity interaction (Kinase screening (Upstate/Millipore)) EUB0000604a MAPK13
T1 sequence (whole entry): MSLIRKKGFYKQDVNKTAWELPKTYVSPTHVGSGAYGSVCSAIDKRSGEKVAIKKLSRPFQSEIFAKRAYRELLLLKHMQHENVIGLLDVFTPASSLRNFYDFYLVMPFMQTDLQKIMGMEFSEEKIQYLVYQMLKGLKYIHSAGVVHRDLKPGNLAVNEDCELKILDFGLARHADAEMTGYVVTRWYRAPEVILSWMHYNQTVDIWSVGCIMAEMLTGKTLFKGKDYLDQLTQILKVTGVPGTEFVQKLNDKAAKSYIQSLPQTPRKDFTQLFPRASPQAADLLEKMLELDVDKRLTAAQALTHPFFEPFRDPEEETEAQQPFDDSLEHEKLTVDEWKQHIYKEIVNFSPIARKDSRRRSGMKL

[2] = biological target: T2, Testis-specific serine/threonine-protein kinase 1 (Homo sapiens) (UniProt Q9BXA7); assay: Selectivity interaction (Ambit KINOMEscan and KiNATiv profiling in Jurkat cells) EUB0000090b TSSK1B; format: cell-based; conditions: at 1 µM
T2 sequence (whole entry): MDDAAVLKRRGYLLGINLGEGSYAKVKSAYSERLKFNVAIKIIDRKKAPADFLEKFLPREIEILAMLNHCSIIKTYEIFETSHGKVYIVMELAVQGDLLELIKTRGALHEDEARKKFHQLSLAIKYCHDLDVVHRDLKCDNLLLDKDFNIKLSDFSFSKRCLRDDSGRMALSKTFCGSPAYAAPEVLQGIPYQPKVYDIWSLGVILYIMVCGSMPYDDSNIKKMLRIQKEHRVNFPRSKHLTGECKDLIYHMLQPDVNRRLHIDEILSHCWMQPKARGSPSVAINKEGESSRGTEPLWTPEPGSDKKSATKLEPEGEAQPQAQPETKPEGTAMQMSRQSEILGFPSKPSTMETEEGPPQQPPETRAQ

[3] = biological target: Histone-lysine N-methyltransferase 2C (Homo sapiens) (UniProt Q8NEZ4); assay: Selectivity interaction (Methyltransferase screen (radiometric assays, panel of 8 PRMTs, 21 protein lysine methyltransferases, 3 DNA methyltransferases, and one RNA methyltransferase)) EUB0000272b MLL3
Histone-lysine N-methyltransferase 2C (Homo sapiens), sequence (Q8NEZ4 whole entry): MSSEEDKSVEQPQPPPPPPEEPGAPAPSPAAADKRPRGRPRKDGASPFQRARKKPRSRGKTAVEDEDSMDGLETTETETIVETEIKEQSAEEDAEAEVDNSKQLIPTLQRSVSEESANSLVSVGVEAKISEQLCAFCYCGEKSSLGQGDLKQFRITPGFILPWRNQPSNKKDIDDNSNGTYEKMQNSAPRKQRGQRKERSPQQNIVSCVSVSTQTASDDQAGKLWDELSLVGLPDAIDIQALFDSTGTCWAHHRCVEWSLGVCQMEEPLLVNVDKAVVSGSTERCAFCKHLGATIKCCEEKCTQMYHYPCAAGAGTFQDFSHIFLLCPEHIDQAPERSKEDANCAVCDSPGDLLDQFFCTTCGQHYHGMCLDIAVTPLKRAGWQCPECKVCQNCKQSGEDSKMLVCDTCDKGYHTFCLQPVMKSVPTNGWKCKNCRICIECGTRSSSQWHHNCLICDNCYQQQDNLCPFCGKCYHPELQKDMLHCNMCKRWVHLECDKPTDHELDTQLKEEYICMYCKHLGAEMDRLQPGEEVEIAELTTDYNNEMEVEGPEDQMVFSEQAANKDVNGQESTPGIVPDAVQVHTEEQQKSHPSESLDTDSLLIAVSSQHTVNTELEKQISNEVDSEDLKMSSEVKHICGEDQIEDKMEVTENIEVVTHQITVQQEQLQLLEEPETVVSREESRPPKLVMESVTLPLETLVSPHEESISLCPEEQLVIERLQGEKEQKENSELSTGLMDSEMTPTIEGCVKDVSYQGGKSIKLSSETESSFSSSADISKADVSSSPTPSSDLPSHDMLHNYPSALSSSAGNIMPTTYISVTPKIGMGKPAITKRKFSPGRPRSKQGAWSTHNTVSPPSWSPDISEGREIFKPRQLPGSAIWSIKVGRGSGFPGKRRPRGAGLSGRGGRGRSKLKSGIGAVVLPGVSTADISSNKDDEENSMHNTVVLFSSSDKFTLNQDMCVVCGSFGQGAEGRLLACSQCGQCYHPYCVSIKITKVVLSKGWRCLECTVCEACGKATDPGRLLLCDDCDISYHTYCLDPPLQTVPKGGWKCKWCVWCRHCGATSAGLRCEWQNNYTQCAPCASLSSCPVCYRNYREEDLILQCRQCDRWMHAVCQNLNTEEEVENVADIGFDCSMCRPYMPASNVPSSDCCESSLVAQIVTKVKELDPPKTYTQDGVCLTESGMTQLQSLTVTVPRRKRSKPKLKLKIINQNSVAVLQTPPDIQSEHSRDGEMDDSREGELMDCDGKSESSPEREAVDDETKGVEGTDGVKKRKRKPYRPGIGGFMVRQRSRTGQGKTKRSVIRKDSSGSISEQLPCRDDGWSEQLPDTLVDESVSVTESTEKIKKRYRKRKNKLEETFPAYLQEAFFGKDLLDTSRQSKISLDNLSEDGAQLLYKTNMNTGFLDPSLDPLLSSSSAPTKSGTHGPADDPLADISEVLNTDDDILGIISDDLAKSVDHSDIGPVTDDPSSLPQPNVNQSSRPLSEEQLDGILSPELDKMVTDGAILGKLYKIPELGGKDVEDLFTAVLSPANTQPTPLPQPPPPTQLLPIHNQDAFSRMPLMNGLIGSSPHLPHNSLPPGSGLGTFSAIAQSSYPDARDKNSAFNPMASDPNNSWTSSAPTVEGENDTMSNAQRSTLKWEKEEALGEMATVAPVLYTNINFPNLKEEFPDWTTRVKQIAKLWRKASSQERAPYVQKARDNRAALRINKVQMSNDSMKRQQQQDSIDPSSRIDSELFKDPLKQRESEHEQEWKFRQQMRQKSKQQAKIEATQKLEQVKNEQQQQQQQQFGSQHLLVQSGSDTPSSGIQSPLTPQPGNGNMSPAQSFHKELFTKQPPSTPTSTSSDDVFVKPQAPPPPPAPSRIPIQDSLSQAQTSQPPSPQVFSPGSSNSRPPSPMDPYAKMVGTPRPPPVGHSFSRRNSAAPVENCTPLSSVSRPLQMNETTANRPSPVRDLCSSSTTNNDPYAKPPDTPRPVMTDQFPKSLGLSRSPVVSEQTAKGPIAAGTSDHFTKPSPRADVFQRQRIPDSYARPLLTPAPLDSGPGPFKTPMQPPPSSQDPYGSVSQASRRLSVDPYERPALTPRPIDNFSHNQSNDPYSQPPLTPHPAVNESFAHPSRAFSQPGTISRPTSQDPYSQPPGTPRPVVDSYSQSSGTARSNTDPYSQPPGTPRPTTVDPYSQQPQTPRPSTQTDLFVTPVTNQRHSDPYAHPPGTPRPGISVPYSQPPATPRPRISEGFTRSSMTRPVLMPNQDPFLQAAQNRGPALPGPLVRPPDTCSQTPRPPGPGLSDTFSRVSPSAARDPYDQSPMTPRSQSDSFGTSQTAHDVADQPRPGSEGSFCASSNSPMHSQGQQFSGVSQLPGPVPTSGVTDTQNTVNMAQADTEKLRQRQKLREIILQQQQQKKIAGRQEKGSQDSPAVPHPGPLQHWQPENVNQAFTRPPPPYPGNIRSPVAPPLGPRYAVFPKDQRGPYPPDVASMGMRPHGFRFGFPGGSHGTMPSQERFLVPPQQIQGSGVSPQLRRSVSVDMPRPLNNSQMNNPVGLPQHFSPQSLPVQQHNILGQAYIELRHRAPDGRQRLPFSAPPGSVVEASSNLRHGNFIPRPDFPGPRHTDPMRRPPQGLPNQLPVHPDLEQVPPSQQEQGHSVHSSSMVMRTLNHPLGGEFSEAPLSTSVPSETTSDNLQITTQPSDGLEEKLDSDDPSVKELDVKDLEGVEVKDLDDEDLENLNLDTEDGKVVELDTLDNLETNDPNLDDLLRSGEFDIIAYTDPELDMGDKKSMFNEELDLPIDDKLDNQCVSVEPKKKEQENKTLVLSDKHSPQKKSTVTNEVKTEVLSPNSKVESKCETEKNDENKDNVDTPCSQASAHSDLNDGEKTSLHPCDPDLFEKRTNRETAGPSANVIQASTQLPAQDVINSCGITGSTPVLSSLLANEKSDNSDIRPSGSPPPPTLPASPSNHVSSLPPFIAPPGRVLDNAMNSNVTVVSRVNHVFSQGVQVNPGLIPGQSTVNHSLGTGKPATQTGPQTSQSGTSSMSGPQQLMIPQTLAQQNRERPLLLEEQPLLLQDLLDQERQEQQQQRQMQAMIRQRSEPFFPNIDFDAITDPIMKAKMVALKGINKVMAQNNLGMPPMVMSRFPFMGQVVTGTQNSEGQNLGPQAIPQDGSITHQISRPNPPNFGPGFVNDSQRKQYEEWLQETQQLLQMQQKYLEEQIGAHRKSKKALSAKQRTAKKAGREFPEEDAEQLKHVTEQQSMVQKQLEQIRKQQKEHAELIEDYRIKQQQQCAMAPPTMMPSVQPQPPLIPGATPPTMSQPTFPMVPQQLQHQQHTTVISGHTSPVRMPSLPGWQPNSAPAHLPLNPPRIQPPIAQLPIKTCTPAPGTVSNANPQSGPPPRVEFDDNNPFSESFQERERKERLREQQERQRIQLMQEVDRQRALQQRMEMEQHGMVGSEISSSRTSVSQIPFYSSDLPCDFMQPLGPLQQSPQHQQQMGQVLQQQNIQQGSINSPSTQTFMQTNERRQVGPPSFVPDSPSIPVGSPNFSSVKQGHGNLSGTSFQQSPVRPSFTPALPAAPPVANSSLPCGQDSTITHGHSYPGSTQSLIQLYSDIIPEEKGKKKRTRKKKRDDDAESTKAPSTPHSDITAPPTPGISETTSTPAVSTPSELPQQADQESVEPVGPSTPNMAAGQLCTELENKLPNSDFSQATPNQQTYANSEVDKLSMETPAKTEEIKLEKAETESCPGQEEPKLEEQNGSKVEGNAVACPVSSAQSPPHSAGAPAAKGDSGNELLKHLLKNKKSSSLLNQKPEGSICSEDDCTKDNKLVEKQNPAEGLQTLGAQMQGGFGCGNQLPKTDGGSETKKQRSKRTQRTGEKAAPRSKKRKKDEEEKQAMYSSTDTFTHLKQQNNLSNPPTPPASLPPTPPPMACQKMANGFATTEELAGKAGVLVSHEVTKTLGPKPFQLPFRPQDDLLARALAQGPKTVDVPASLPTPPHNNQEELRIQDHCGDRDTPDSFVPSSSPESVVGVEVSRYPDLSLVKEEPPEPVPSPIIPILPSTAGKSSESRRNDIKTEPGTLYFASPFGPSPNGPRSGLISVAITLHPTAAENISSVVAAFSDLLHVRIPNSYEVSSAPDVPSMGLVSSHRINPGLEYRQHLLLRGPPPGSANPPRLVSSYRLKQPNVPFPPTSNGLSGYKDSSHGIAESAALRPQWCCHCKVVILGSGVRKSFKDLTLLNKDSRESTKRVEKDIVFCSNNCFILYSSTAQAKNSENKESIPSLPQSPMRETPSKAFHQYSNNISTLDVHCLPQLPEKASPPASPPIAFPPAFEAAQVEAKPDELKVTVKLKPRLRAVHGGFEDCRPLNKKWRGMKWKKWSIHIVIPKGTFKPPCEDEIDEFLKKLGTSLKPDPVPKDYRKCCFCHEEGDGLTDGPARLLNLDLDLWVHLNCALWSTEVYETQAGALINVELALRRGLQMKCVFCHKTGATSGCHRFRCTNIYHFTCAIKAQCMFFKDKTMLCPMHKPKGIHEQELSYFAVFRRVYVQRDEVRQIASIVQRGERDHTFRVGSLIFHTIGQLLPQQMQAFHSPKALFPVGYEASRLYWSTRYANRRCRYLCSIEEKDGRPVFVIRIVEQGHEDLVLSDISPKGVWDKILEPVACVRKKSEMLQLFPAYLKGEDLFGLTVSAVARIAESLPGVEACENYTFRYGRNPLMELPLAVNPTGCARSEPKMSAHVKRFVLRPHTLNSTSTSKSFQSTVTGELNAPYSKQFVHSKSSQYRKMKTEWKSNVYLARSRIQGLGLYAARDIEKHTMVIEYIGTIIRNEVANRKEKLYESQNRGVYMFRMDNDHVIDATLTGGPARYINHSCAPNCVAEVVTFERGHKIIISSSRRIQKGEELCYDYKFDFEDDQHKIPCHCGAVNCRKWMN

[4] = biological target: Tyrosine-protein kinase Fgr (Homo sapiens) (UniProt P09769); assay: Selectivity interaction (KinomeScan (DiscoverX)) EUB0001079a FGR; conditions: at 1 µM
[5] = biological target: T3, Aurora kinase A (Homo sapiens) (UniProt O14965); assay: Selectivity interaction (Upstate Kinase Profiler service (Millipore)) EUB0000056c STK6; conditions: at 1 µM
T3 sequence (whole entry): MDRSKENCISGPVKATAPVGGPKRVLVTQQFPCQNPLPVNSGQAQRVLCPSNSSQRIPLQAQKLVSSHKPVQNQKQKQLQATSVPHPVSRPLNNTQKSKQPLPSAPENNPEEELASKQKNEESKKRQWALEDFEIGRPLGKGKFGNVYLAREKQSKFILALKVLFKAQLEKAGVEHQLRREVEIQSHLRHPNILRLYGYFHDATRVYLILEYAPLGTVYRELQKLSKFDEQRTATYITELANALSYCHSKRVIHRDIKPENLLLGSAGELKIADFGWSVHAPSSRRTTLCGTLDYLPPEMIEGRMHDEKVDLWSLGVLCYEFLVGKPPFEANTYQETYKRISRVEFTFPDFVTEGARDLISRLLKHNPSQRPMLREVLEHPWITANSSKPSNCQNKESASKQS

[6] = biological target: T4, Aurora kinase C (Homo sapiens) (UniProt Q9UQB9); assay: Selectivity interaction (KinomeScan (DiscoverX)) EUB0000045b AURKC
T4 sequence (whole entry): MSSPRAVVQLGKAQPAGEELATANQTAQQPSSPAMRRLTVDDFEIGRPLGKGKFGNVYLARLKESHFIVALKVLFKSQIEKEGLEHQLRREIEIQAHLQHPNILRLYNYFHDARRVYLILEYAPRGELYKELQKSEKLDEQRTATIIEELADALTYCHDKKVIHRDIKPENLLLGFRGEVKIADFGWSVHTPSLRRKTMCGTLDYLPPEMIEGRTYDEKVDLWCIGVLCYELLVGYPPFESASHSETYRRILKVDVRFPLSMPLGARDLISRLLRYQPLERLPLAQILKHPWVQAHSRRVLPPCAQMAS

[7] = biological target: T5, Rhodopsin kinase GRK7 (Homo sapiens) (UniProt Q8WTQ7); assay: Selectivity interaction (SelectScreen profiling (Invitrogen)) EUB0000607a GRK7; conditions: at 2 µM
T5 sequence (whole entry): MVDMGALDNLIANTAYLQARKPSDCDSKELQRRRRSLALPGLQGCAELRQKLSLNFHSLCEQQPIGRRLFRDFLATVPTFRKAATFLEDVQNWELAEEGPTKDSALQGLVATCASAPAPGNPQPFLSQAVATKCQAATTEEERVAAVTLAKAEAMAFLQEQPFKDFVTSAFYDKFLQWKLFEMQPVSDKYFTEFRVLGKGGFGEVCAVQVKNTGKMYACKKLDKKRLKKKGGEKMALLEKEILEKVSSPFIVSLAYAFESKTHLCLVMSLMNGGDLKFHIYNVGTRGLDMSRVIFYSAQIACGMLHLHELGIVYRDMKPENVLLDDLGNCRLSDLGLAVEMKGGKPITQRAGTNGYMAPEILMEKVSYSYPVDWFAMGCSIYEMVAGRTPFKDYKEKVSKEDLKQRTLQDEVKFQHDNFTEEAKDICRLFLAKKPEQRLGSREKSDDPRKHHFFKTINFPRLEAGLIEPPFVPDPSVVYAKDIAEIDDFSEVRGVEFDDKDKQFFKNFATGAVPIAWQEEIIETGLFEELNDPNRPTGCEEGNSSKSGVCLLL

Cc1cnc(Nc2ccc(F)cc2Cl)nc1-c1c[nH]c(C(=O)N[C@H](CO)c2cccc(Cl)c2)c1
% of inhibition [1]: 54%

CN(C)C/C=C/C(=O)Nc1ccc(C(=O)N2CCCC(Nc3ncc(Cl)c(-c4c[nH]c5ccccc45)n3)C2)cc1 (centres undefined)
% of control [2]: 83%

Cc1cc(C)cc([C@H]2c3cc(C)ccc3NC(=O)CN2C(=O)c2ccc(Br)s2)c1
% of activity ([3]; at 1 µM): 101% | % of activity ([3]; at 10 µM): 92%

Nc1cnc(N2CCc3cc(S(=O)(=O)Nc4c(F)cc(Cl)cc4F)cc(N4CCCC4=O)c32)nc1 [TP-020n]
% of control [4]: 100%

Cc1ccc(-c2ccc3c(ccc4sc5c(c43)NC[C@@H](C)NC5=O)n2)cn1
% of inhibition [5]: 32%

C=CC(=O)Nc1cc(-n2c(=O)ccc3cnc4ccc(-c5ccc(NS(C)(=O)=O)cc5)cc4c32)ccc1C
% of control ([6]; at 1 µM): 90% | % of control ([6]; at 10 µM): 63%

CNC(=O)Nc1ccc(-c2nc(N3CC4CCC(C3)O4)c3cnn(C4CCC5(CC4)OCCO5)c3n2)cc1
% of inhibition [7]: 7%
